Measurements published in patent publication US9234006B2, “Compounds” (Novacta Biosystems Limited, priority 2011, dated 2016).
Where a SMILES comes first, the peptide text is derived from it. Bridges are numbered along the chain shown (N, C = ends). [ ]: non-standard residue; d: D form. The star is where a group is joined. ξ: configuration not given here. Butanoyl(3ξ-OH) = CC(O)CC(=O)*; Thr(3ξ) = CC(O)[C@H](N)C(=O)O; Dab = NCC[C@H](N)C(=O)O; Ahp = NCCCCCCC(=O)O; Ava = NCCCCC(=O)O

Assays:
K. pneumoniae NCTC7427 = assay: MIC susceptibility testing, broth microdilution in CaMHB; type: cell-based, Klebsiella pneumoniae; conditions: Table 4A, different batches of cation-adjusted Muller-Hinton broth
In short: (§1)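 Colonies from fresh MHA grown overnight in CaMHB at 37° C, 250 rpm for 18-20 hours, diluted 100-fold and regrown to OD600 0.2-0.3 […]. Actively growing culture diluted 100-fold in fresh medium as inoculum; assays run in duplicate.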

K. pneumoniae NCTC8172 = assay: as above; type: cell-based, Klebsiella pneumoniae; conditions: Table 4A, different batches of cation-adjusted Muller-Hinton broth
In short: as §1

K. pneumoniae ATCC 4352 = assay: as above; type: cell-based, Klebsiella pneumoniae; conditions: K. pneumoniae ATCC4352; Table 4A, different batches of cation-adjusted Muller-Hinton broth
In short: as §1

[1] = system: K. pneumoniae ATCCBAA-1706; assay: as above; type: cell-based, Klebsiella pneumoniae; conditions: Table 4A, different batches of cation-adjusted Muller-Hinton broth
In short: as §1

[2] = system: P. aeruginosa ATCCCRM-9027; assay: as above; type: cell-based, Pseudomonas aeruginosa; conditions: P. aeruginosa AATCCRM 9027; Table 4A, different batches of cation-adjusted Muller-Hinton broth
In short: as §1

P. aeruginosa ATCC27853 = assay: as above; type: cell-based, Pseudomonas aeruginosa; conditions: Table 4A, different batches of cation-adjusted Muller-Hinton broth
In short: as §1

P. aeruginosa ATCC 9721 = assay: as above; type: cell-based, Pseudomonas aeruginosa; conditions: P. aeruginosa ATCC9721; Table 4A, different batches of cation-adjusted Muller-Hinton broth
In short: as §1

P. aeruginosa ATCC10145 = assay: as above; type: cell-based, Pseudomonas aeruginosa; conditions: Table 4A, different batches of cation-adjusted Muller-Hinton broth
In short: as §1

E. coli NCTC9001 = assay: as above; type: cell-based, Escherichia coli; conditions: Table 4A, different batches of cation-adjusted Muller-Hinton broth
In short: as §1

E. coli ATCC700928 = assay: as above; type: cell-based, Escherichia coli; conditions: Table 4A, different batches of cation-adjusted Muller-Hinton broth
In short: as §1

E. coli NCTC12900 = assay: as above; type: cell-based, Escherichia coli; conditions: Table 4A, different batches of cation-adjusted Muller-Hinton broth
In short: as §1

E. coli ATCC25922 = assay: as above; type: cell-based, Escherichia coli; conditions: Table 4A, different batches of cation-adjusted Muller-Hinton broth
In short: as §1

A. baumannii NCTC7844 = assay: as above; type: cell-based, Acinetobacter baumannii; conditions: Table 4A, different batches of cation-adjusted Muller-Hinton broth
In short: as §1

A. baumannii ATCC19606 = assay: as above; type: cell-based, Acinetobacter baumannii; conditions: Table 4A, different batches of cation-adjusted Muller-Hinton broth
In short: as §1

A. baumannii ATCCBAA-747 = assay: as above; type: cell-based, Acinetobacter baumannii; conditions: Table 4A, different batches of cation-adjusted Muller-Hinton broth
In short: as §1

A. baumannii NCTC13423 = assay: as above; type: cell-based, Acinetobacter baumannii; conditions: Table 4A, different batches of cation-adjusted Muller-Hinton broth
In short: as §1

HK-2 cell line = conditions: 24 h incubation, resazurin reduction; Table 7A; footnote c: solubility issues noted at top concentration
Method: The renal cell toxicity of the compounds was assessed in an in vitro assay using the HK-2 cell line, an immortalized proximal tubule cell line derived from a normal human kidney. The endpoint to describe the toxicity of the compounds was the reduction of resazurin correlating with the metabolic activity of the cells.
Cells were cultured in 150 cm^2 flasks in 25 mL supplemented KSF (with 5 ng/mL EGF and 50 μg/mL BPE). Cells were maintained at 70% confluence with a maximum of 25 passages. Day 1: Media was removed and cells were washed with 10 ml DPBS. […] After 1 to 2 minutes incubation, 14 ml media was added to the flask to inactivate the trypsin. The cell suspension was transferred to a centrifuge tube and the cells pelleted at 1000 rpm for 6 minutes. The cell pellet was then resuspended in fresh media supplemented with EGF and BPE. […] 7500 cells were dispensed in each well in a volume of 160 μl and incubated at 37° C. for 24 h.
Day 2: Test compounds were prepared directly into the media. […] The microtiter plates were removed from the incubator and the media replaced with 100 μl of the dilutions of the compound solution. Every set of concentration was done in triplicate, and positive and negative controls were added to each plate. The plates were then incubated for 24 h at 37° C. with 5% CO2 in a humidified atmosphere.
Day 3: The reagent containing the resazurin (CellTiter-Blue, Promega) was diluted in PBS (1:4) and added at 20% (v/v) to each well. The plates were then incubated at 37° C. for 2 h before the fluorescent reduction product was detected.
Media only background values were subtracted before the data was analysed using GraphPad Prism. Compound concentration values were plotted as log values to enable a dose-response curve to be fitted and IC50 values determined (Table 7).
The renal cell toxicity of the additional example compounds was assessed in an in vitro assay using the HK-2 cell as described in the example above.

MIC (K. pneumoniae ATCC 4352) [micrograms/mL] | MIC (P. aeruginosa ATCC27853) [micrograms/mL] | MIC (E. coli ATCC25922) [micrograms/mL] | MIC (A. baumannii ATCC19606) [micrograms/mL] | SMILES | MIC (K. pneumoniae NCTC7427) [micrograms/mL] | MIC (K. pneumoniae NCTC8172) [micrograms/mL] | MIC [1] [micrograms/mL] | MIC [2] [micrograms/mL] | MIC (P. aeruginosa ATCC 9721) [micrograms/mL] | MIC (P. aeruginosa ATCC10145) [micrograms/mL] | MIC (E. coli NCTC9001) [micrograms/mL] | MIC (E. coli ATCC700928) [micrograms/mL] | MIC (E. coli NCTC12900) [micrograms/mL] | MIC (A. baumannii NCTC7844) [micrograms/mL] | MIC (A. baumannii ATCCBAA-747) [micrograms/mL] | MIC (A. baumannii NCTC13423) [micrograms/mL] | IC50 HK-2 cells (HK-2 cell line)
2 | 0.25 | 1 | 16 | CC(C)C[C@@H]1NC(=O)[C@@H](Cc2ccccc2)NC(=O)[C@H](CCN)NC(=O)[C@@H](NC(=O)[C@H](CCN)NC(=O)[C@@H](NC(=O)CCCCCCN)C(C)O)CCNC(=O)[C@H](C(C)O)NC(=O)[C@H](CCN)NC(=O)[C@H](CCN)NC1=O (some centres unmarked) [Example 19, 7-Aminoheptanoyl polymyxin B nonapeptide] (H-[Ahp][Thr(3ξ)][Dab][Dab][Dab][dF]L[Dab][Dab][Thr(3ξ)]; lactam 4-C) |  |  |  |  |  |  |  |  |  |  |  |  | 157^c μg/mL
8 | 0.5 | 4 | >32 | CC(C)C[C@@H]1NC(=O)[C@@H](Cc2ccccc2)NC(=O)[C@H](CCN)NC(=O)[C@@H](NC(=O)[C@H](CCN)NC(=O)[C@@H](NC(=O)CC(C)O)C(C)O)CCNC(=O)[C@H](C(C)O)NC(=O)[C@H](CCN)NC(=O)[C@H](CCN)NC1=O (stereo partly drawn) [Example 22, 3-(R,S)-3-Hydroxybutanoyl polymyxin B nonapeptide] ({Butanoyl(3ξ-OH)}-[Thr(3ξ)][Dab][Dab][Dab][dF]L[Dab][Dab][Thr(3ξ)]; lactam 3-C) |  |  |  |  |  |  |  |  |  |  |  |  | 500^c μg/mL

SMILES | MIC (K. pneumoniae ATCC 4352) [micrograms/mL] | MIC (P. aeruginosa ATCC27853) [micrograms/mL] | MIC (E. coli ATCC25922) [micrograms/mL] | MIC (A. baumannii ATCC19606) [micrograms/mL] | MIC (K. pneumoniae NCTC7427) [micrograms/mL] | MIC (K. pneumoniae NCTC8172) [micrograms/mL] | MIC [1] [micrograms/mL] | MIC [2] [micrograms/mL] | MIC (P. aeruginosa ATCC 9721) [micrograms/mL] | MIC (P. aeruginosa ATCC10145) [micrograms/mL] | MIC (E. coli NCTC9001) [micrograms/mL] | MIC (E. coli ATCC700928) [micrograms/mL] | MIC (E. coli NCTC12900) [micrograms/mL] | MIC (A. baumannii NCTC7844) [micrograms/mL] | MIC (A. baumannii ATCCBAA-747) [micrograms/mL] | MIC (A. baumannii NCTC13423) [micrograms/mL] | IC50 HK-2 cells (HK-2 cell line)
CC(C)C[C@@H]1NC(=O)[C@@H](Cc2ccccc2)NC(=O)[C@H](CCN)NC(=O)[C@@H](NC(=O)[C@H](CCN)NC(=O)[C@@H](NC(=O)CCCCN)C(C)O)CCNC(=O)[C@H](C(C)O)NC(=O)[C@H](CCN)NC(=O)[C@H](CCN)NC1=O (some centres unmarked) [Example 15, 5-Aminopentanoyl polymyxin B nonapeptide] (H-[Ava][Thr(3ξ)][Dab][Dab][Dab][dF]L[Dab][Dab][Thr(3ξ)]; lactam 4-C) | 0.5 | 0.25 | 2 | 1 | 0.25 | 4 | 0.5 | 0.125 | 0.125 | 1 | 2 | 1 | 2 | 8 | 8 | 4 | 
